Literature values in US5086043A, “Production of Saponins of Lichi” (priority 1990, dated 1992).

What was measured:
[1] = test system: carrageenin-induced swelling; conditions: rats; established in the prior art
capillary permeability = conditions: mice; established in the prior art

SMILES: CC1(C)CC[C@]2(C(=O)O)CC[C@]3(C)C(=CC[C@@H]4[C@@]5(C)CC[C@H](O)C(C)(C)[C@@H]5CC[C@]43C)[C@@H]2C1 [oleanolic acid, Oleanolic acid]
- carrageenin-induced swelling [1]: inhibited carrageenin-induced swelling in rats
- capillary permeability (capillary permeability): inhibited capillary permeability in mice
